# Measured values taken from US20250154546A1, “USE OF 3'-OXYMETHYLENE ALKYL DISULFIDE PROTECTED NUCLEOTIDES FOR ENZYMATIC DNA AND RNA SYNTHESIS” (Miltenyi Biotec B.V. & Co. KG, priority 2022, published 2025).
# Assay: Cleave kinetics of 3′-O-capped nucleotide in cleave mix, monitored by UPLC
# Assay type: physicochemical
# Conditions: 10 mM Mg2+ in the cleave mix versus none; 20 mM DMPS, pH 9.5
# Method: A 3′-O-capped nucleotide was treated with a cleave mix DMPS/THPP and the concentration of the 3′-capped nucleotide was monitored by UPLC with a UV detector at a fixed time interval.
# In [A]=−kt+In[A]0 and t1/2=In2/k with [A]: reactant concentration; k: reaction rate coefficient
# Nucleotide: MeSSdATP, 4.7 mM in 1× TE buffer;
# 12.8 μL of nucleotide was added to 287 μL of cleave mix in a 1.5 mL of UPLC sample vial. The resulting mixture was analyzed by UPLC right away and every 10 min afterwards automatically for up to 120 min. The area of the starting nucleotide peak was measured at each time point and the value was used directly for the calculation. From the rate of peak area reduction or disappearance of the intermediate the rate constant and the half-life of the intermediate calculated as discussed earlier.
structure (smiles),measurement,value
"CSSCO[C@H]1C[C@H](n2cnc3c(N)ncnc32)O[C@@H]1COP(=O)(O)OP(=O)(O)OP(=O)(O)O [MeSSdATP, 3′-O—(MeSSCH2)-dATP]",reduction of half-life,≤ 30%
